Assay results: ChEMBL document CHEMBL1143033, “Nodulisporol and Nodulisporone, novel specific inhibitors of human DNA polymerase lambda from a fungus, Nodulisporium sp” (Bioorg Med Chem, 2007)

How the values were obtained:
[1] = biological target: T1, DNA polymerase delta catalytic subunit (Homo sapiens, UniProt P28340); experiment: Inhibition of human DNA polymerase delta
T1 sequence (P28340 whole entry): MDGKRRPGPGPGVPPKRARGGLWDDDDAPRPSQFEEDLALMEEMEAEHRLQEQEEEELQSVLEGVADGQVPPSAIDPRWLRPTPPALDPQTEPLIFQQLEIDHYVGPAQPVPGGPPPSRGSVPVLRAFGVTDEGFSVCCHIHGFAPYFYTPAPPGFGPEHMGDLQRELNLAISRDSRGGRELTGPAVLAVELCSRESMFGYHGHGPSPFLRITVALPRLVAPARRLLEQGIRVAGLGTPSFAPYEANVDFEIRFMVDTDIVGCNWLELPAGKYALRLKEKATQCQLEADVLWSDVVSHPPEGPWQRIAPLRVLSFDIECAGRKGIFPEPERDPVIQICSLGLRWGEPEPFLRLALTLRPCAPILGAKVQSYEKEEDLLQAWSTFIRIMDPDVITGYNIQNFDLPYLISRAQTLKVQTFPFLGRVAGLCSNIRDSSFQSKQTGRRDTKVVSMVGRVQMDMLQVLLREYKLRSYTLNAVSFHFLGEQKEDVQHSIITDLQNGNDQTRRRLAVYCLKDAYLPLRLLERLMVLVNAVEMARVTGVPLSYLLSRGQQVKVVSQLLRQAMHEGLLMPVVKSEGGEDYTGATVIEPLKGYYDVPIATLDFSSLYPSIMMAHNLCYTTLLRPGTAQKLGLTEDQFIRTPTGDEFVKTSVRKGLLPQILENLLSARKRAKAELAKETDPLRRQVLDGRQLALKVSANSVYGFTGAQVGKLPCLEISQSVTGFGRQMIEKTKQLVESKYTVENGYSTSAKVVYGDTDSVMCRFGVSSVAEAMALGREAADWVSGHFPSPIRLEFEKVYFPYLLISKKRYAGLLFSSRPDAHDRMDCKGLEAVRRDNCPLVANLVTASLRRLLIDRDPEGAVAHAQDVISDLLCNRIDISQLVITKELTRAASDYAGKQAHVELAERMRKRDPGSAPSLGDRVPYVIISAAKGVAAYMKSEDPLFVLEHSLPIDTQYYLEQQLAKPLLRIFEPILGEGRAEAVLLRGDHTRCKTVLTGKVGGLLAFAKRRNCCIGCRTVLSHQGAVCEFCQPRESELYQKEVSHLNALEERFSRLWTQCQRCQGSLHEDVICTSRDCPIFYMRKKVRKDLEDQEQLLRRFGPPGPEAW

[2] = Inhibition of human DNA polymerase gamma
DNA polymerase beta = DNA polymerase beta (Rattus norvegicus, UniProt P06766); experiment: Inhibition of rat DNA polymerase beta
[3] = Inhibition of human DNA polymerase epsilon
DNA polymerase lambda = biological target: T2, DNA polymerase lambda (Homo sapiens, UniProt Q9UGP5); experiment: Inhibition of human DNA polymerase lambda
T2 sequence (Q9UGP5 whole entry): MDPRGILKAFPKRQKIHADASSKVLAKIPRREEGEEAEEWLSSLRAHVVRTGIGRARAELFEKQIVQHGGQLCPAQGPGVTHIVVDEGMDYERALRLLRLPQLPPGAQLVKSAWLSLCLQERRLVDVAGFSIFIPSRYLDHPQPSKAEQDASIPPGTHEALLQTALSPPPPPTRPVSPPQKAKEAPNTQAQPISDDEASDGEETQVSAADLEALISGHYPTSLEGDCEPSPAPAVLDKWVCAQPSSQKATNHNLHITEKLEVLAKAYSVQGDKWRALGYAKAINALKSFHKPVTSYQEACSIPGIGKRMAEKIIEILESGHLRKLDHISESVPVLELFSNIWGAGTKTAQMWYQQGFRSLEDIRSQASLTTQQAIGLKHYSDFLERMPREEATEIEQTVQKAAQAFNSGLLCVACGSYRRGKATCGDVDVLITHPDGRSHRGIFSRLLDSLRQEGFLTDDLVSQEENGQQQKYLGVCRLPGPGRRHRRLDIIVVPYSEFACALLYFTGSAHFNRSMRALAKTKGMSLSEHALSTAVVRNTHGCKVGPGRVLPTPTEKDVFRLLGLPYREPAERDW

[4] = Inhibition of calf DNA polymerase alpha; parameters: species or system Bos taurus

Row | SMILES | IC50 [1] [µM] | IC50 [2] [µM] | IC50 (DNA polymerase beta) [µM] | IC50 [3] [µM] | IC50 (DNA polymerase lambda) [µM] | IC50 [4] [µM]
1 | COc1cc(O)c2c(=O)c(CO)c(C)oc2c1 | > 1000 | > 1000 | > 1000 | > 1000 | 454 | > 1000
2 | CC1Cc2c(C=O)ccc(O)c2C(=O)O1 (configuration not stated) | > 1000 | > 1000 | > 1000 | > 1000 | 275 | > 1000
3 | COc1ccc(C)c2c1C(=O)OC(C)C2 (configuration not stated) | > 1000 | > 1000 | > 1000 | > 1000 | 49 | > 1000
4 | COc1cccc2c1C(=O)OC(C)C2 (configuration not stated) | > 1000 | > 1000 | > 1000 | > 1000 | 180 | > 1000
5 | CC1Cc2cccc(O)c2C(=O)O1 (configuration not stated) [MELLEIN] | > 1000 | > 1000 | > 1000 | > 1000 | 316 | > 1000
6 | COc1cccc2c1C(O)CCC2O (configuration not stated) [NODULISPOROL] | > 1000 | > 1000 | > 1000 | > 1000 | 168 | > 1000
7 | COc1cccc2c1C(=O)CCC2O (configuration not stated) [NODULISPORONE] | > 1000 | > 1000 | > 1000 | > 1000 | 82 | > 1000
